Assay results reported in US11351173B2, “Substituted pyrrolo[1,2-a]pyrimidines and their use in the treatment of medical disorders” (Bial—R&D Investments, S.A., priority 2014, dated 2022).
Values after ≈ are worked out from the molar mass of the structure shown.

Key:
[1] = molecular target: T1, glucocerebrosidase (Gcase) (Homo sapiens, UniProt P04062); experiment: Glucocerebrosidase (Gcase) activation assay, 4-methylumbelliferyl-beta-D-glucopyranoside substrate, fluorescence readout; type: biochemical; conditions: for activation at 0.1 µM / Percent Gcase Activation, 0.1 μM Test Compound: test compound at 0.1 μM; for activation at 0.1 µM: read-out: Percent Gcase Activation, 0.1 μM Test Compound; for Percent Gcase Activation, 1 μM Test Compound / activation at 1 µM: test compound at 1.0 μM; for activation at 1 µM: read-out: Percent Gcase Activation, 1 μM Test Compound
T1 construct: micellar solution containing 10 nM GCase and 100 nM saposin C
T1 sequence (P04062 40-536): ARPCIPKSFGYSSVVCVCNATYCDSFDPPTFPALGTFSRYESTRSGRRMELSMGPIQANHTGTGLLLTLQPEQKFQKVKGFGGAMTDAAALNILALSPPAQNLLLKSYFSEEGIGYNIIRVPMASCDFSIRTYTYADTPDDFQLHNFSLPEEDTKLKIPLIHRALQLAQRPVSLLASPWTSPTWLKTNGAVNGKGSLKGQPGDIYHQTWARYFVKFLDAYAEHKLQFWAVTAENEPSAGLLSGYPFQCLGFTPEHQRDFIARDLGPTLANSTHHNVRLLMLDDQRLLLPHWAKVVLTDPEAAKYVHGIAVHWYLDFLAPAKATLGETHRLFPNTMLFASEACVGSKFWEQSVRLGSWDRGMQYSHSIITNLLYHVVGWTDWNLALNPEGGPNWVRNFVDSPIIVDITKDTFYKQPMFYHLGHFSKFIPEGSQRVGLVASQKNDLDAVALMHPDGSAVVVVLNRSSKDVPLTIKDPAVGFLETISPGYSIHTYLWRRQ
How it was run: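 10 nM GCase with 100 nM saposin C pre-incubated 30 min with compound in pH 4.7 phosphate/citrate PS/triton micelles, then mixed 1:1 with 2 mM 4-methylumbelliferyl-β-glucoside micellar substrate (stock level). Run 15 min at room temperature, stopped at pH 12.5; fluorescence 365/440 nm. Screened at 1.0 and 0.1 μM; 8-point curves from 5 μM.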

[2] = Compound solubility in water; conditions: water; for solubility: Compound Solubility in Water

Row | SMILES | activation at 0.1 µM [1] | Percent Gcase Activation, 1 μM Test Compound [1] | solubility [2] | activation at 1 µM [1] | solubility ([2]; in water) | Percent Gcase Activation, 0.1 μM Test Compound [1] | Compound Solubility in Water [2]
1 | Cc1cc(C)n2ccc(C(=O)NC3CCc4ccc(-c5cocn5)cc43)c2n1 (stereo not shown) [III-130] |  |  | 0.5 µg/mL (≈ 1.34 µM) | > 60% |  |  | 
2 | Cc1cc(C)n2ccc(C(=O)NC3(C)CCOc4ccccc43)c2n1 (stereo not shown) [III-181] | > 20% |  | 1.8 µg/mL (≈ 5.37 µM) | > 60% |  |  | 
3 | Cc1cc(C)n2ccc(C(=O)N[C@@H]3CCc4ccccc43)c2n1 [III-218] | > 20% |  |  | > 60% | 0.2 µg/mL (≈ 0.655 µM) |  | 
4 | CC[C@H](NC(=O)c1ccn2c(C)cc(C)nc12)c1ccccc1 [III-164] | > 20% |  | 1.4 µg/mL (≈ 4.55 µM) | > 60% |  |  | 
5 | Cc1cc(C)n2ccc(C(=O)Nc3ccc4c(c3)CCC4)c2n1 [III-13] |  | +++ (Gcase activation greater than 60%) |  |  |  | *** (greater than 20% Gcase activation) | 0.06 µg/mL
6 | Cc1cc(C)n2ccc(C(=O)NC3CCOc4ccc(-c5ncco5)cc43)c2n1 (stereo not shown) [III-207] | < 10% |  |  | 30 to 60% | 1 µg/mL (≈ 2.57 µM) |  | 
7 | Cc1cc(C)n2ccc(C(=O)Nc3ccc(-c4ncco4)cc3)c2n1 [III-274] |  | +++ (Gcase activation greater than 60%) |  |  | 0.06 µg/mL (≈ 0.181 µM) | *** (greater than 20% Gcase activation) | 
8 | Cc1cc(C)n2ccc(C(=O)NC3Cc4ccc(-c5ncco5)cc4C3)c2n1 (stereo not shown) [III-242] | 10 to 20% |  |  | > 60% | 1.3 µg/mL (≈ 3.49 µM) |  | 
9 | Cc1cc(C)n2ccc(C(=O)NC3CCOc4cc(F)ccc43)c2n1 (stereo not shown) [III-196] | 10 to 20% |  | 4.2 µg/mL (≈ 12.4 µM) | > 60% |  |  | 
10 | [2H]c1c(C([2H])([2H])[2H])nc2c(C(=O)Nc3ccc(-c4cocn4)cc3)cc([2H])n2c1C([2H])([2H])[2H] [III-158] | > 20% |  | 0.07 µg/mL (≈ 0.206 µM) | > 60% |  |  | 
11 | [2H]C1(NC(=O)c2ccn3c(C)cc(C)nc23)CCCc2ccccc21 (stereo not shown) [III-131] | > 20% |  | 3.4 µg/mL (≈ 10.6 µM) | > 60% |  |  | 
12 | Cc1cc(C)n2ccc(C(=O)Nc3ccc(Cl)c(COc4cccnc4)c3)c2n1 [III-279] |  | +++ (Gcase activation greater than 60%) |  |  | < 0.1 µg/mL | *** (greater than 20% Gcase activation) | 
13 | CCCc1cc(COC)n2ccc(C(=O)NC3(C)CCOc4cc(F)c(F)cc43)c2n1 (stereo not shown) [III-267] | < 10% |  |  | > 60% | 0.4 µg/mL (≈ 0.931 µM) |  | 
14 | Cc1cc(C)n2ccc(C(=O)N[C@H]3CCc4ccccc43)c2n1 [III-217] | > 20% |  |  | > 60% | 0.2 µg/mL (≈ 0.655 µM) |  | 
15 | Cc1cc(C)n2ccc(C(=O)NC3(C)CCOc4c(F)cccc43)c2n1 (stereo not shown) [III-133] | > 20% |  | 1.9 µg/mL (≈ 5.38 µM) | > 60% |  |  | 
16 | Cc1cc(C)n2ccc(C(=O)NC3CCc4ccccc4C3)c2n1 (stereo not shown) [III-228] | > 20% |  |  | > 60% | 0.9 µg/mL (≈ 2.82 µM) |  | 

Row | SMILES | activation at 0.1 µM [1] | Percent Gcase Activation, 1 μM Test Compound [1] | solubility [2] | activation at 1 µM [1] | solubility ([2]; in water) | Percent Gcase Activation, 0.1 μM Test Compound [1] | Compound Solubility in Water [2]
17 | Cc1cc(C)n2ccc(C(=O)Nc3ccc(C4=NCCO4)cc3Cl)c2n1 [III-219] | > 20% |  |  | > 60% | 0.9 µg/mL (≈ 2.44 µM) |  | 
18 | Cc1cc(C)n2ccc(C(=O)Nc3ccc4c(c3)C(Oc3cccnc3)CC4)c2n1 (stereo not shown) [III-120] | > 20% |  | 0.1 µg/mL (≈ 0.251 µM) | > 60% |  |  | 
19 | Cc1cc(C)n2ccc(C(=O)NC3(C)CCOc4cccc(F)c43)c2n1 (stereo not shown) [III-118] | > 20% |  | 1.4 µg/mL (≈ 3.96 µM) | > 60% |  |  | 
20 | Cc1cc(C)n2ccc(C(=O)NC3Cc4ccc(-c5cscn5)cc4C3)c2n1 (stereo not shown) [III-192] | > 20% |  | 0.01 µg/mL (≈ 0.0257 µM) | > 60% |  |  | 
21 | COCc1cc(COC)n2ccc(C(=O)NC3(C)CCOc4cc(F)c(F)cc43)c2n1 (stereo not shown) [III-155] | 10 to 20% |  | 2.1 µg/mL (≈ 4.87 µM) | > 60% |  |  | 
22 | Cc1ccnc2c(C(=O)N[C@H](C)c3ccc(F)cc3)ccn12 [III-261] | 10 to 20% |  |  | 30 to 60% | 12.7 µg/mL (≈ 42.7 µM) |  | 
23 | Cc1cc(C)n2ccc(C(=O)Nc3ccc(-n4ccnc4)cc3)c2n1 [III-86] | < 10% |  | 0.3 µg/mL (≈ 0.905 µM) | < 30% |  |  | 
24 | Cc1cc(C)n2ccc(C(=O)Nc3ccc(-c4cccs4)cn3)c2n1 [III-116] | > 20% |  | 0.003 µg/mL (≈ 0.00861 µM) | > 60% |  |  | 
25 | COc1cc(NC(=O)c2ccn3c(C)cc(C)nc23)ccc1-c1cocn1 [III-108] | > 20% |  | 0.2 µg/mL (≈ 0.552 µM) | > 60% |  |  | 
26 | CCC(C)(NC(=O)c1ccn2c(C)cc(C)nc12)c1ccccc1 (stereo not shown) [III-287] | > 20% |  |  | > 60% | 1.6 µg/mL (≈ 4.98 µM) |  | 
27 | Cc1cc(C)n2ccc(C(=O)NC3CCOc4ccccc43)c2n1 (stereo not shown) [III-211] | 10 to 20% |  |  | > 60% | 3.8 µg/mL (≈ 11.8 µM) |  | 
28 | COCCOc1ccc2c(c1)C(NC(=O)c1ccn3c(C)cc(C)nc13)CC2 (stereo not shown) [III-103] | 10 to 20% |  | 11.8 µg/mL (≈ 31.1 µM) | > 60% |  |  | 
29 | Cc1cc(C(F)(F)F)n2ccc(C(=O)Nc3ccc(-c4cocn4)cc3)c2n1 [III-254] | < 10% |  |  | < 30% | 0.6 µg/mL (≈ 1.55 µM) |  | 
30 | Cc1cc(C)n2ccc(C(=O)NC3CCCc4ccccc43)c2n1 (stereo not shown) [III-167] | > 20% |  | 0.8 µg/mL (≈ 2.5 µM) | > 60% |  |  | 
31 | Cc1cc(C)n2ccc(C(=O)NC3CC=C(CCCO)c4ccccc43)c2n1 (stereo not shown) [III-144] | 10 to 20% |  | 0.8 µg/mL (≈ 2.13 µM) | > 60% |  |  | 
32 | O=C(Nc1ccc(-c2cocn2)cc1)c1ccn2c(C(F)F)cc(C(F)F)nc12 [III-23] | > 20% |  | 0.06 µg/mL (≈ 0.148 µM) | > 60% |  |  | 

Continued, values first:

Row | activation at 0.1 µM [1] | Percent Gcase Activation, 1 μM Test Compound [1] | solubility [2] | activation at 1 µM [1] | solubility ([2]; in water) | Percent Gcase Activation, 0.1 μM Test Compound [1] | Compound Solubility in Water [2] | SMILES
33 | 10 to 20% | +++ (Gcase activation greater than 60%) | 27.3 µg/mL (≈ 83.4 µM) |  |  |  |  | Cc1cc(C)n2ccc(C(=O)NC3CCC4(CCCCO4)C3)c2n1 (stereo not shown) [III-82]
34 | > 20% |  | 1 µg/mL (≈ 2.71 µM) | > 60% |  |  |  | Cc1cc(C)n2ccc(C(=O)N[C@H]3CC[C@@H](Oc4cccs4)CC3)c2n1 [III-189]
35 | > 20% |  | 8.2 µg/mL (≈ 22.5 µM) | > 60% |  |  |  | CCCCO[C@H]1CC[C@H](NC(=O)c2ccn3c(C)cc(Cl)nc23)CC1 [III-65]
36 |  |  |  |  |  | * (less than 10% Gcase activation) | 12.4 µg/mL | Cc1cc(C)n2ccc(C(=O)NC3CCC(C4CCCO4)CC3)c2n1 (stereo not shown) [III-200]
37 | < 10% |  |  | < 30% | 25.1 µg/mL (≈ 73.7 µM) |  |  | Cc1cc(C)n2ccc(C(=O)NC3CCN(CC(F)(F)F)C3)c2n1 (stereo not shown) [III-235]
38 | 10 to 20% |  |  | > 60% | 8.8 µg/mL (≈ 26.9 µM) |  |  | Cc1cc(C)n2ccc(C(=O)N[C@H]3CC[C@H](OC4CC4)CC3)c2n1 [III-286]
39 | > 20% |  | 3.5 µg/mL (≈ 8.72 µM) | > 60% |  |  |  | CCCCO[C@H]1CC[C@H](NC(=O)c2ccn3c(COC)cc(C(C)C)nc23)CC1 [III-36]
40 | > 20% |  | 18.1 µg/mL (≈ 52.7 µM) | > 60% |  |  |  | CCCCO[C@H]1CC[C@H](NC(=O)c2ccn3c(C)cc(C)nc23)CC1 [III-26]
41 | < 10% |  | 0.3 µg/mL (≈ 0.686 µM) | > 60% |  |  |  | Cc1cc(C2CC2)n2ccc(C(=O)N[C@H]3CC[C@H](OCCCCC(F)(F)F)CC3)c2n1 [III-47]
42 |  | +++ (Gcase activation greater than 60%) |  |  |  | *** (greater than 20% Gcase activation) | 17.2 µg/mL | CCCCCOC1CCC(NC(=O)c2ccn3c(C)cc(C)nc23)C1 (stereo not shown) [III-177]
43 |  | +++ (Gcase activation greater than 60%) |  |  |  | * (less than 10% Gcase activation) | 19.7 µg/mL | Cc1cc(C)n2ccc(C(=O)NC3CCC4(CCCCO4)CC3)c2n1 (stereo not shown) [III-113]
44 | > 20% |  |  | > 60% | 1.5 µg/mL (≈ 4.2 µM) |  |  | CCCCCOC1CCCC(NC(=O)c2ccn3c(C)cc(C)nc23)C1 (stereo not shown) [III-234]
45 | > 20% |  | 8.5 µg/mL (≈ 24.9 µM) | > 60% |  |  |  | Cc1cc(C)n2ccc(C(=O)N[C@H]3CC[C@H](OC4CCC4)CC3)c2n1 [III-101]
46 | > 20% |  |  | > 60% | 8.7 µg/mL (≈ 25.3 µM) |  |  | Cc1cc(C)n2ccc(C(=O)N[C@H]3CC[C@H](OCC(C)C)CC3)c2n1 [III-288]
47 | 10 to 20% |  |  | > 60% | 17.1 µg/mL (≈ 49.8 µM) |  |  | Cc1cc(C)n2ccc(C(=O)N[C@H]3CC[C@H](OC(C)(C)C)CC3)c2n1 [III-289]
48 | < 10% |  |  | < 30% | 9.4 µg/mL (≈ 28.5 µM) |  |  | CCOC1(C)CCC(NC(=O)c2ccn3c(C)cc(C)nc23)CC1 (stereo not shown) [III-232]
